Measured values from patent publication US10335422B2, “Small molecules that promote skin regeneration” (International Stem Cell Corporation, priority 2013, dated 2019).
Structures can show the parent of a compound that is named as a salt.

Tests used:
EGF = test: High-throughput screening assay for EGF production (ELISA of hDF supernatants); format: cell-based, human; settings: 3 days of treatment
Procedure: (§1) For EGF production assay hDFs were plated into 96 well Clear tissue-culture treated plates (Falcon) at 19,000 cells/well in DMEM (Gibco) 1× N2/B27 Supplement (Invitrogen). […] After 3 days of treatment, supernatants were collected and analyzed for EGF content using EGF Human ELISA Kit (Abcam) and with BioTek Synergy 2 Multi-Detection Microplate Reader (see FIG. 1).

FGF7 = test: High-throughput screening assay for FGF7 production (ELISA of hDF supernatants); format: cell-based, human; settings: at concentration of 25 μM; 3 days of treatment
Procedure: as §1, with “FGF7” for “EGF”

[1] = test system: human dermal fibroblast (hDF); test: High-throughput proliferation screening assay of human dermal fibroblasts; format: cell-based; settings: at concentration of 200 nM; 3 days of treatment; DAPI imaging
Procedure: For the proliferation assay, human dermal fibroblast (hDF) were plated into 96 well Black/Clear bottom tissue-culture treated plates (Corning) at 1,000 cells/well in DMEM (Gibco) 15% FBS (HyClone). […] After 3 days of treatment, cells were fixed and stained with DAPI and analyzed using Roche Cellavista High-Content Imaging System (see FIG. 1).

Collagen Type 1 = test: High-throughput screening assay for Collagen Type 1 production (Procollagen Type 1C-Peptide EIA of hDF supernatants); format: cell-based, human; settings: 3 days of treatment
TGFβ1 = test: High-throughput screening assay for TGFβ1 production (ELISA of hDF supernatants); format: cell-based, human; settings: 3 days of treatment
Procedure: as §1, with “TGFβ1” for “EGF”

[2] = at concentrations of 25 and 12.5 μM

Compound: PSB 06126
- production level of EGF in hDFs (EGF; at concentration of 12.5 (unit not given)): induced the highest production level

Compound: CCCCC[C@H](O)/C=C/[C@H]1[C@H](O)CC(=O)[C@@H]1C/C=C\CCCC(=O)O [Prostaglandin E2]
- production level of FGF7 in hDFs (FGF7): induced the highest production level

Compound: CN1CC(=O)NC1=NC(=O)Nc1cccc(Cl)c1 [Fenobam]
- proliferation level in hDFs [1]: induced the highest proliferation level

Compound: CN1CCC[C@@H]1CCO[C@](C)(c1ccccc1)c1ccc(Cl)cc1 [Clemastine fumarate]
- production level of Collagen Type 1 in hDFs (Collagen Type 1; at concentration of 780 nM): induced the highest production level

Compound: Cl.Cl.Nc1ncnc2nc(-c3ccc(N4CCOCC4)nc3)cc(-c3cccc(Br)c3)c12 [ABT702 dihydrochloride]
- proliferation level in hDFs [1]: induced the highest proliferation level

Compound: O=C1CCc2cc(OCCCCc3nnnn3C3CCCCC3)ccc2N1 [Cilostazol]
- production level of Collagen Type 1 in hDFs (Collagen Type 1; at concentration of 6.25 μM): induced the highest production level

Compound: CN1Cc2ccccc2[C@@H]2c3cccc4[nH]cc(c34)C[C@H]21 [CY 208-243]
- production level of EGF in hDFs (EGF; at concentrations of 12.5 μM): induced the highest production level

Compound: O=C(O)c1ccc2cc(-c3ccc(O)c(C45CC6CC(CC(C6)C4)C5)c3)ccc2c1 [CD 437]
- production level of EGF in hDFs (EGF; [2]): induced the highest production level

Compound: CN(C)C(=O)C(=O)c1cn(C)c2cc(Cl)c(C(=O)N3CCC(Cc4ccc(F)cc4)CC3)cc12 [SX 011]
- proliferation level in hDFs [1]: induced the highest proliferation level

Compound: O=C(O)c1ccc(-c2ccc3cc(O)c(C45CC6CC(CC(C6)C4)C5)cc3c2)cc1 [CD 1530]
- production level of EGF in hDFs (EGF; [2]): induced the highest production level

Compound: CS(=O)(=O)O.N=C(N)SCCc1ccc(OCc2ccc([N+](=O)[O-])cc2)cc1 [KB-R7943 mesylate]
- production level of TGFβ1 in hDFs (TGFβ1; at concentration of 1.6 μM): induced the highest production level

Compound: OCCN(CCO)c1nc(N2CCCCC2)c2nc(N(CCO)CCO)nc(N3CCCCC3)c2n1 [Dipyridamole]
- production level of Collagen Type 1 in hDFs (Collagen Type 1; at concentration of 390 nM): induced the highest production level

Compound: Proxyfan Oxalate
- production level of TGFβ1 in hDFs (TGFβ1; at concentration of 24 nM): induced the highest production level

Compound: Cc1cc(C)c(S(=O)(=O)Nc2cccc(C(F)(F)F)c2)c(C)c1 [m-3M3FBS]
- production level of TGFβ1 in hDFs (TGFβ1; at concentration of 24 nM): induced the highest production level
